The values below come from US6818414B1, “Method of pretreatment of sample for quantitating cholesterol and method for quantitating cholesterol in specific lipoproteins by using the same” (Daiichi Pure Chemicals Co., Ltd., priority 1999, dated 2004).

The experiment concerns cholesterol oxidase. The experiment is described as follows: Relative absorbance of free cholesterol reaction in serum with cholesterol oxidase and fulfenamic acid (Reagents J to L). The note with it: 600 nm, 37° C. 5 minutes, pH 6.0/7.0/8.0, 5.0 U/mL cholesterol oxidase and 0 mM fulfenamic acid = 100, average of four serum samples. It is filed as biochemical. As to the method: Reagents J to L shown below in Table 6 were prepared, which commonly contained 1.25 U/mL peroxidase (product of Toyobo Co., Ltd.), 0.01% 4-aminoantipyrine, 0.02% disulfo butyl-m-toluidine and 50 mM NaCl and were different from each other in the kind and pH of buffer and the concentrations of cholesterol oxidase (product of Toyobo Co., Ltd.) and fulfenamic acid (product of Sigma Chemical Co.).
Reagents J to L (300 μL) were separately added to aliquots (3 μL) of each serum sample. After the resultant mixtures were incubated at 37° C. for 5 minutes, their absorbances were measured at600 nm. The above procedures were conducted using the Hitachi 7150 automated analyzer.
With respect to each of Reagents J to L, relative absorbances were calculated for the individual concentrations of cholesterol oxidase and fulfenamic acid by assuming that the absorbance obtained with a reagent containing 5.0 U/mL cholesterol oxidase and 0 mM fulfenamic acid was 100.
Results, which had been obtained by averaging the relative absorbances of the four samples, are presented in FIG. 3. in which “COD” stands for cholesterol oxidase.

Regarding `O=C(O)c1ccccc1Nc1cccc(C(F)(F)F)c1` [fulfenamic acid, flufenamic acid], the relative absorbance entry was “increased depending upon the concentration of fulfenamic acid irrespective of the pH”.
